Test results taken from ChEMBL document CHEMBL4428040, “8-Hydroxyquinolines in medicinal chemistry: A structural perspective” (Eur J Med Chem, 2016).

Tests used:
HeLa [1] = assay: Cytotoxicity against human HeLa cells assessed as reduction in cell viability after 48 hrs by resazurin assay; type: functional, cell-based
HeLa [2] = assay: Cytotoxicity against human HeLa cells assessed as reduction in cell viability at 1:1 CuCl2:compound molar ratio after 48 hrs by resazurin assay; type: functional, cell-based
HeLa [3] = assay: Ionophoric activity in human HeLa cells assessed as intracellular metal accumulation at 4.2 uM cotreated with Fe incubated for 6 hrs by ICP-AES analysis relative to control; type: functional
HeLa [4] = assay: Ionophoric activity in human HeLa cells assessed as intracellular metal accumulation at 11.3 uM cotreated with Co incubated for 6 hrs by ICP-AES analysis relative to control; type: functional
HeLa [5] = assay: Ionophoric activity in human HeLa cells assessed as intracellular metal accumulation at 11.3 uM cotreated with Ni incubated for 6 hrs by ICP-AES analysis relative to control; type: functional
HeLa [6] = assay: Ionophoric activity in human HeLa cells assessed as intracellular metal accumulation at 1.8 uM cotreated with Cu incubated for 6 hrs by ICP-AES analysis relative to control; type: functional
HeLa [7] = assay: Growth inhibition of human HeLa cells; type: functional, cell-based
HeLa [8] = assay: Potency index, ratio of CQ IC50 to compound IC50 for human HeLa cells; type: functional
HeLa [9] = assay: Growth inhibition of human HeLa cells in presence of copper; type: functional, cell-based

| Compound | IC50 (HeLa [1]) [µM] | IC50 (HeLa [2]) [µM] | fold change (FC) (HeLa [3]) | fold change (FC) (HeLa [4]) | fold change (FC) (HeLa [5]) | fold change (FC) (HeLa [6]) | IC50 (HeLa [7]) [µM] | Ratio IC50 (HeLa [8]) | IC50 (HeLa [9]) [µM] |
| --- | --- | --- | --- | --- | --- | --- | --- | --- | --- |
| Oc1cccc2cccnc12 [OXYQUINOLINE] | 13.5 | – | – | – | – | – | – | – | – |
| Oc1cccc2ccc(CCc3ccc4cccc(O)c4n3)nc12 | 23.7 | 1.8 | 1.8 | 2.1 | 2.1 | 13.7 | – | – | – |
| Cc1ccc(OS(=O)(=O)N2CCN(Cc3cc([N+](=O)[O-])c4cccnc4c3O)CC2)cc1 | – | – | – | – | – | – | 0.71 | 26 | 0.06 |
